Assay results as given in EP0703904B1, “PYRIMIDINE CYANOGUANIDINES AS K-CHANNEL BLOCKERS” (priority 1993, dated 1994).

What was measured:
RMA K^+ Channel = RMA K^+ Channel (Oryctolagus cuniculus, UniProt P82451+Q8WMQ7); experiment: Inhibition of pinacidil-induced relaxation of norepinephrine-contracted isolated rabbit mesenteric artery (RMA) rings; format: cell-based; details: inhibitor 5 µM; pinacidil 1 µM; norepinephrine 5 µM contracted rings; mean ± sem; relaxation at 15 minutes versus control; number of rings in brackets; read-out: RMA K^+ Channel Antagonism % I at 5 µM
Chain of RMA K^+ Channel (P82451 whole entry): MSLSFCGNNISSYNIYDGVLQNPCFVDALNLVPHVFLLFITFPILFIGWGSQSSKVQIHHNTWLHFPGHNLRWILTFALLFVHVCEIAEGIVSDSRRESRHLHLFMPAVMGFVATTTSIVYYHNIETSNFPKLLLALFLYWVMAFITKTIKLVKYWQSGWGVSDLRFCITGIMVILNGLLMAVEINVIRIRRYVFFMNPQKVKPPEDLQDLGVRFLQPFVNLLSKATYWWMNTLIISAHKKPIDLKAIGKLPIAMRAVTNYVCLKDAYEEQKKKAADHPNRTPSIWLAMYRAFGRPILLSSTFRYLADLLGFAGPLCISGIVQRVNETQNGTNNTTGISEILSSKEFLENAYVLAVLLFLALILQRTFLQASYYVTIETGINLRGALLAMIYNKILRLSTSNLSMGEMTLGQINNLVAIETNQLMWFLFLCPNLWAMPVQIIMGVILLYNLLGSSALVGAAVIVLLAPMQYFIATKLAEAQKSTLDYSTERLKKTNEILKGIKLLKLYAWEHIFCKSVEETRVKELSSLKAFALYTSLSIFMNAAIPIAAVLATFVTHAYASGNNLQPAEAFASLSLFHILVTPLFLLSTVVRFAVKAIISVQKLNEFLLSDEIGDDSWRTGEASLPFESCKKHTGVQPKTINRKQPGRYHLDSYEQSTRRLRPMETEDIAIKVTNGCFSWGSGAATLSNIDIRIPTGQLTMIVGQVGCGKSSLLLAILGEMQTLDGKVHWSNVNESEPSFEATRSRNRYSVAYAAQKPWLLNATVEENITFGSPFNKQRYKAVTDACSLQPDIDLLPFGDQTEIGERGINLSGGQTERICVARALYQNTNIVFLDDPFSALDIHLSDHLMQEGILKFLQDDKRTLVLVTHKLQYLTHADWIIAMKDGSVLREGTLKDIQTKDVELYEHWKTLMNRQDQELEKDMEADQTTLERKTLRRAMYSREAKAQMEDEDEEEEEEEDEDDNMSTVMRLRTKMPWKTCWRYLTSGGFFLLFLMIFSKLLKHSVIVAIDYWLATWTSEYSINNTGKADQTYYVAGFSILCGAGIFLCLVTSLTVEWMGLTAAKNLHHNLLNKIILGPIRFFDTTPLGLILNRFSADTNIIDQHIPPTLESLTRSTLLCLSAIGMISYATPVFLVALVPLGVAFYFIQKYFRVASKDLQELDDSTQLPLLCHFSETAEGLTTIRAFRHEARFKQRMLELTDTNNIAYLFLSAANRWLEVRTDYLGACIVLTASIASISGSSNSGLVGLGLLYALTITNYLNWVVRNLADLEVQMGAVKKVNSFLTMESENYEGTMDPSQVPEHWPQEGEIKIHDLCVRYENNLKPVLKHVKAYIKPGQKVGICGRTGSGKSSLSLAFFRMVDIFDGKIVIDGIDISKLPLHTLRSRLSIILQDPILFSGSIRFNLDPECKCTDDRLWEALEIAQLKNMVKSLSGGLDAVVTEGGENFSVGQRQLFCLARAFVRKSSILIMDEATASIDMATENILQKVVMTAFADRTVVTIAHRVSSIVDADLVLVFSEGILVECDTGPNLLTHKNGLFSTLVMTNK
Chain of RMA K^+ Channel (Q8WMQ7 1-424): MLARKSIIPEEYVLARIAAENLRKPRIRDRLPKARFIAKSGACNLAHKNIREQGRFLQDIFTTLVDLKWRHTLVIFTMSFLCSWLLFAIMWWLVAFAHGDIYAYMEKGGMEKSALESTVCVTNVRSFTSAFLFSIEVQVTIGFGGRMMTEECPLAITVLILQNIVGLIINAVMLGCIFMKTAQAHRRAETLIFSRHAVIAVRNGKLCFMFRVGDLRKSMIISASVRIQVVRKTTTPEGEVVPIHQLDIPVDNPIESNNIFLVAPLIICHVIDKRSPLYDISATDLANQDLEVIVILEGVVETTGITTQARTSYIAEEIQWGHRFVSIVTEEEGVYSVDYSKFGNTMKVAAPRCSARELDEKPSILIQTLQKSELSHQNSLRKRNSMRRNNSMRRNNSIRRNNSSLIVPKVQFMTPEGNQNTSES
Description: The results for potassium channel blocking were obtained by using isolated rabbit mesenteric artery (RMA) procedures. Norepinephrine (5 µM) was used to contract the RMA rings twice, with an hour separating the two contractions. During this hour the tissues equilibrated in physiological salt solution at a resting tension of 1 gram. Upon the plateau of the second contraction 1 µM pinacidil was added to all tissues and the resulting relaxation time course was studied for thirty minutes. […] By studying the ability of the test compounds to inhibit this pinacidil-induced relaxation, the degree of potassium antagonism could be determined. The compounds were applied to the tissues for one hour between the two contractions and the pinacidil-induced relaxation was studied in the continuing presence of the compounds. Thus, the total time of pretreatment with the test compound was 75 minutes before the addition of pinacidil. […] The compounds were tested at 5 µM. The inhibitory effect of a compound was measured as percent inhibition of pinacidil relaxation at 15 minutes in comparison with the control.

[1] = system: female Harlan Sprague-Dawley rats; experiment: Diuretic screen in rats: urinary Na^+ excretion; format: in vivo
Description: The diuretic activity was determined in female Harlan Sprague-Dawley rats weighing 200 to 230 grams that were fasted 15 hours overnight, and then were deprived of both food and water for an additional hour prior to dosing. […] It approximates the area under the dose response curve. The vehicle was 20% dimethylacetamide (DMA; v/v) in a pH 7.4 phosphate buffer (0.58% N2HPO4 and 0.13% NaH2PO4·H2O). Sufficient drug was suspended in 1 to 2 ml of this vehicle to deliver doses of 1.0 to 30 mg/kg in a volume of 0.5 ml (2-4 rats/dose). At least 2 vehicle control rats, and, for most tests, 2 standard diuretic treated rats were included in each experiment. Standards used as comparators included the K^+ retaining diuretic amiloride and tie K^+ wasting diuretics furosemide, hydrochlorothiazide and metolazone.
Following their IP doses, the rats' urinary bladders were gently compressed to eliminate all pretreatment urine, and two identically treated rats were placed in a stainless steel metabolism cage equipped with a graduated test tube to collect voided urine. At 2 and 5 hours post treatment, the rats' bladders were again compressed, the volume of urine excreted by the pair of rats was recorded, and aliquots of urine were retained for analysis of Na^+ and K^+ concentrations with a NOVA-13 selective ion analyzer. Following the 5 hour urine collection, the rats were returned to their stock cages, and at least 1 week of recovery was allowed between a maximum of 3 diuretic tests.
The electrolyte concentrations detected in these urine samples were manually mulliplied by their respective volumes to determine total milliequivalent (mEq) excretion of Na^+ and K^+ per pair of rats, and the results obtained with multiple racks per drug treatment were averaged. Increases in urinary Na^+ excretion of 50% or more above the pooled control tests were regarded as reflecting activity.

[2] = net increase above control in urinary Na^+ excretion over 5 hours divided by total of the three drug doses, administered IP

Row | Structure (SMILES) | inhibition at 5 µM (RMA K^+ Channel) | 5 h Net Natriuretic Efficacy (µEq Na^+/mg/kg) [1, 2] | 5 h Net Natriuretic Efficacy (µEq Na^+/mg/kg) ([1]; antidiuresis seen with 5 mg/kg oral dosage (footnote d))
1 | N#CN=C(Nc1cnc(N)nc1)NC1(c2ccccc2)CCC1 [Example 2, N-(2-Amiro-5-pyrimidyl)N"-cyano-N'-(1-phenyl)cyclobutylguanidine] | 97% | 43 µEq Na^+/mg/kg | 
2 | N#CN=C(NCC(c1ccccc1)c1ccccc1)Nc1cccnc1 [Control] | 0% | 0.0 µEq Na^+/mg/kg | 
3 | CC(N/C(=N\C#N)Nc1ccncc1)C(C)(C)C (centres unmarked) [Pinacidil] | 0% |  | -60^d µEq Na^+/mg/kg
4 | C[C@@H](NC(=NC#N)Nc1cncnc1)c1ccccc1 [Example 1, (R)-N"-Cyano-N-(5-pyrimidyl)-N'-(1-phenyl)ethylguanidine] | 81.7 ± 4.4% | 13.2 µEq Na^+/mg/kg | 
